Source: ChEMBL document CHEMBL5143714, “Discovery of BMS-986339, a Pharmacologically Differentiated Farnesoid X Receptor Agonist for the Treatment of Nonalcoholic Steatohepatitis” (J Med Chem, 2022)

How the values were obtained:
[1] = Metabolic stability in rat liver microsome assessed as parent compound remaining at […] measured after 10 mins; format: ADME; settings: liver microsomes, read-out: Stability
[2] = Metabolic stability in human liver microsome assessed as parent compound remaining at […] measured after 10 mins; format: ADME; settings: liver microsomes, read-out: Stability
[3] = Metabolic stability in mouse liver microsome assessed as parent compound remaining at […] measured after 10 mins; format: ADME; settings: liver microsomes, read-out: Stability
[4] = target: T1, Nuclear receptor subfamily 1 group I member 2 (Homo sapiens, UniProt O75469); experiment: Transactivation of PXR (unknown origin); format: ADME
T1 sequence (O75469 whole entry): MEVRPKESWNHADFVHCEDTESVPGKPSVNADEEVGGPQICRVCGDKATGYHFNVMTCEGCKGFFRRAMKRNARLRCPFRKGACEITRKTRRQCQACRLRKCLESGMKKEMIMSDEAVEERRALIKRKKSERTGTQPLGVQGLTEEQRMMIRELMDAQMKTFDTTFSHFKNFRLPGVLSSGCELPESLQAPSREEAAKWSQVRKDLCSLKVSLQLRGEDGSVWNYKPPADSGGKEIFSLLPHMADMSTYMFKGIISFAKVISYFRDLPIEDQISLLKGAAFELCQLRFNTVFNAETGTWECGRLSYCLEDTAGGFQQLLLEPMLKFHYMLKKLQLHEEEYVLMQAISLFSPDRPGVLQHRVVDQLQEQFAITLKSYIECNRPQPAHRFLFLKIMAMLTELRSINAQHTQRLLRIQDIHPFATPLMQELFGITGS

[5] = target: T1, Nuclear receptor subfamily 1 group I member 2; experiment: Transactivation of PXR (unknown origin) relative to refampicin; format: ADME
Cytochrome P450 2C9 = Cytochrome P450 2C9 (Homo sapiens, UniProt P11712); experiment: Inhibition of recombinant CYP2C9 (unknown origin) using fluorogenic substrate preincubated for 15 min followed by NADPH addition measured after 2 hrs by fluorescence method; format: ADME
Cytochrome P450 2C19 = Cytochrome P450 2C19 (Homo sapiens, UniProt P33261); experiment: Inhibition of recombinant CYP2C19 (unknown origin) using fluorogenic substrate preincubated for 15 min followed by NADPH addition measured after 2 hrs by fluorescence method; format: ADME
Bile acid receptor = target: T2, Bile acid receptor (Homo sapiens, UniProt Q96RI1); experiment: Agonist activity at Gal4-fused human FXR in HEK293 cells incubated for 15 min by luciferase reporter assay; format: cell-based
T2 sequence (Q96RI1 whole entry): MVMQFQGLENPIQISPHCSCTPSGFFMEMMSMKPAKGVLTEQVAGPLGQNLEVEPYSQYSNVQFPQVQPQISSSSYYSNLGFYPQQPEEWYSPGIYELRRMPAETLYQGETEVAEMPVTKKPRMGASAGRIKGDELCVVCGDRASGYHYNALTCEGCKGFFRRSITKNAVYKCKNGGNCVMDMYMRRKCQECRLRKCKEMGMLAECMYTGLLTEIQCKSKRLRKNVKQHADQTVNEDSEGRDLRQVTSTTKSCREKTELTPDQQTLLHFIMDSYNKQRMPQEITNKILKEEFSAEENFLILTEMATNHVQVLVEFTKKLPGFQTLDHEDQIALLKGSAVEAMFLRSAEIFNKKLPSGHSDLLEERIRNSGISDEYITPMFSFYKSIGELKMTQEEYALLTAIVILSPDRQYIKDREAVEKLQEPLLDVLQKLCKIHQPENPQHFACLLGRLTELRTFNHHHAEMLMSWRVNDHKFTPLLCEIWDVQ

[6] = Metabolic stability in mouse liver microsome assessed as parent compound remaining at 1 mg/mL measured after 10 mins; format: ADME; settings: liver microsomes, read-out: Stability
[7] = Metabolic stability in rat liver microsome assessed as parent compound remaining at 1 mg/mL measured after 10 mins; format: ADME; settings: liver microsomes, read-out: Stability
[8] = Metabolic stability in human liver microsome assessed as parent compound remaining at 1 mg/mL measured after 10 mins; format: ADME; settings: liver microsomes, read-out: Stability

Chain of Cytochrome P450 2C9 (P11712 whole entry): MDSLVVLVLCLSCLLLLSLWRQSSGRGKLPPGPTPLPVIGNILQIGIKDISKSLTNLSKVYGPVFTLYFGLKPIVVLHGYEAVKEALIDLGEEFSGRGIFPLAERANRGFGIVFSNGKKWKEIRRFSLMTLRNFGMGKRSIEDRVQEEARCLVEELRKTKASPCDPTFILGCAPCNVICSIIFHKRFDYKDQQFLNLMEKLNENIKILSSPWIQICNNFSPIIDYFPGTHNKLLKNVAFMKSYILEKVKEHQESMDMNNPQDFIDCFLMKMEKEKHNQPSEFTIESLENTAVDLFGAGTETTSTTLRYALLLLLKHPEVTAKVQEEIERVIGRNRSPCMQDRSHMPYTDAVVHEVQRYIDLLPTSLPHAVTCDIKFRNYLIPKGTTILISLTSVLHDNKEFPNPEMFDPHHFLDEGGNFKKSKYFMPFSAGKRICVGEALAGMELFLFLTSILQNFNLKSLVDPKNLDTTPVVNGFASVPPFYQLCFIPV
Chain of Cytochrome P450 2C19 (P33261 whole entry, the tested form may be a part): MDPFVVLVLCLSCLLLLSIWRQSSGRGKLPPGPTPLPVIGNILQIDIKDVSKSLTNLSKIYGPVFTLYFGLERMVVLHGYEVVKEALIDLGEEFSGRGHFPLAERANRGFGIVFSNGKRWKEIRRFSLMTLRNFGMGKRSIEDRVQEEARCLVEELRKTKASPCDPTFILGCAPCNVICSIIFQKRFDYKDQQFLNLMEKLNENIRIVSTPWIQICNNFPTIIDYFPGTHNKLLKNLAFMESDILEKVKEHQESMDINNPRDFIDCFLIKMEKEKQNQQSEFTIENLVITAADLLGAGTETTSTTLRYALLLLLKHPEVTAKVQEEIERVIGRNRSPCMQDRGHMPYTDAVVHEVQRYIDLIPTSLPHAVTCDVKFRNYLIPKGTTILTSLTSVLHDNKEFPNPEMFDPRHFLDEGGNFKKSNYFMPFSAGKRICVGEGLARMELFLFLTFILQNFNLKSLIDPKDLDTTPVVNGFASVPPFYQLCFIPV

## O=C(C1CC(F)(F)C1)N(CC12CCC(c3nc(C4CC4)no3)(CC1)CC2)c1cccc(-c2nc(C3CC3)no2)c1
[1]
  remaining at 10 min: 72%
[2]
  remaining at 10 min: 98%
[3]
  remaining at 10 min: 100%
[4]
  EC50: 1000 nM
[5]
  Emax: 62%
Cytochrome P450 2C9
  IC50: 1000 nM
Cytochrome P450 2C19
  IC50: 17000 nM

## CC(C)(C)c1noc(C23CCC(CN(C(=O)C45CC(F)(C4)C5)c4cccc(-c5nc(C6CC6)no5)c4)(CC2)CC3)n1
Bile acid receptor
  EC50: 70 nM
[1]
  remaining at 10 min: 86%
[2]
  remaining at 10 min: 100%
[3]
  remaining at 10 min: 100%
[4]
  EC50: 50000 nM
[5]
  Emax: 11%
Cytochrome P450 2C9
  IC50: 20000 nM
Cytochrome P450 2C19
  IC50: 20000 nM

## O=C(C1CCCCC1)N(CC12CCC(c3nc(C4CC4)no3)(CC1)CC2)c1cccc(-c2nc(C3CC3)no2)c1
Bile acid receptor
  EC50: 44 nM
[1]
  remaining at 10 min: 4%
[2]
  remaining at 10 min: 38%
[3]
  remaining at 10 min: 34%
[4]
  EC50: 6000 nM
[5]
  Emax: 21%
Cytochrome P450 2C9
  IC50: 20000 nM
Cytochrome P450 2C19
  IC50: 20000 nM

## COc1cccc(-c2cccc(N(CC34CCC(c5nc(C6CC6)no5)(CC3)CC4)C(=O)C3CCCCC3)c2)c1
Bile acid receptor
  EC50: 92 nM

## O=C(N(CC12CCC(c3nc(C4CC4)no3)(CC1)CC2)c1cccc(-c2nc(C3CC3)no2)c1)C12CC(F)(C1)C2
[1]
  remaining at 10 min: 99%
[2]
  remaining at 10 min: 100%
[3]
  remaining at 10 min: 100%
[4]
  EC50: 1000 nM
[5]
  Emax: 25%
Cytochrome P450 2C9
  IC50: 2000 nM
Cytochrome P450 2C19
  IC50: 2000 nM

## CC(C)(O)c1ccc(-c2cccc(N(CC34CCC(c5noc(C(C)(C)F)n5)(CC3)CC4)C(=O)[C@H]3C[C@@](C)(O)C3)c2)cc1
Bile acid receptor
  EC50: 25 nM
[1]
  remaining at 10 min: 100%
[2]
  remaining at 10 min: 100%
[3]
  remaining at 10 min: 99%
[4]
  EC50: 50000 nM
[5]
  Emax: 13%
Cytochrome P450 2C9
  IC50: 5000 nM
Cytochrome P450 2C19
  IC50: 9000 nM

## CC(C)(C)c1nc(C23CCC(CN(C(=O)C45CC(F)(C4)C5)c4cccc(-c5nc(C6CC6)no5)c4)(CC2)CC3)no1
Bile acid receptor
  EC50: 29 nM
[1]
  remaining at 10 min: 81%
[2]
  remaining at 10 min: 97%
[3]
  remaining at 10 min: 92%
[4]
  EC50: 50000 nM
[5]
  Emax: 19%
Cytochrome P450 2C9
  IC50: 3000 nM
Cytochrome P450 2C19
  IC50: 9000 nM

## CCOc1ncc(-c2cccc(N(CC34CCC(c5noc(C(C)(C)C)n5)(CC3)CC4)C(=O)[C@H]3C[C@@](C)(O)C3)c2)cn1
[1]
  remaining at 10 min: 44%
[2]
  remaining at 10 min: 64%
[3]
  remaining at 10 min: 84%
[4]
  EC50: 1500 nM
[5]
  Emax: 37%
Cytochrome P450 2C9
  IC50: 1000 nM
Cytochrome P450 2C19
  IC50: 9000 nM

## CCOc1ccc(-c2cccc(N(CC34CCC(c5noc(C(C)(C)C)n5)(CC3)CC4)C(=O)C34CC(F)(C3)C4)c2)cn1
[1]
  remaining at 10 min: 79%
[2]
  remaining at 10 min: 94%
[3]
  remaining at 10 min: 58%
[4]
  EC50: 50000 nM
[5]
  Emax: 9%
Cytochrome P450 2C9
  IC50: 2000 nM
Cytochrome P450 2C19
  IC50: 8000 nM

## COC(=O)/C=C/c1cccc(N(CC23CCC(c4ccc(C5CC5)cc4)(CC2)CC3)C(=O)C2CCCCC2)c1
Bile acid receptor
  EC50: 111 nM

## CC(C)(C)c1nc(C23CCC(CN(C(=O)C45CC(F)(C4)C5)c4cccc(-c5nnc(C6CC6)o5)c4)(CC2)CC3)no1
Bile acid receptor
  EC50: 45 nM
[1]
  remaining at 10 min: 60%
[2]
  remaining at 10 min: 76%
[3]
  remaining at 10 min: 52%
Cytochrome P450 2C19
  IC50: 1000 nM

## COC(=O)/C=C/c1cccc(N(CC23CCC(c4ccc(N5CCOCC5)cc4)(CC2)CC3)C(=O)C2CCCCC2)c1
Bile acid receptor
  EC50: 118 nM

## COC(=O)/C=C/c1cccc(N(CC23CCC(c4nc(C)no4)(CC2)CC3)C(=O)C2CCCCC2)c1
[6]
  remaining at 10 min: 4%
[7]
  remaining at 10 min, 1 mg/mL: 31%
[8]
  remaining at 10 min: 6%
Bile acid receptor
  EC50: 57 nM

## O=C(C1CCC(F)(F)CC1)N(CC12CCC(c3nc(C4CC4)no3)(CC1)CC2)c1cccc(-c2nc(C3CC3)no2)c1
Bile acid receptor
  EC50: 149 nM
[1]
  remaining at 10 min: 23%
[2]
  remaining at 10 min: 100%
[3]
  remaining at 10 min: 82%
[4]
  EC50: 8000 nM
[5]
  Emax: 35%
Cytochrome P450 2C9
  IC50: 20000 nM
Cytochrome P450 2C19
  IC50: 300 nM

## COc1cc(-c2cccc(N(CC34CCC(c5nc(C6CC6)no5)(CC3)CC4)C(=O)C3CCCCC3)c2)ccn1
Bile acid receptor
  EC50: 95 nM

## COC(=O)/C=C/c1cccc(N(CC23CCC(c4ccc(OC)cc4)(CC2)CC3)C(=O)C2CCCCC2)c1
[6]
  remaining at 10 min: 35%
[7]
  remaining at 10 min, 1 mg/mL: 8%
[8]
  remaining at 10 min: 60%
Bile acid receptor
  EC50: 142 nM

## CCOc1ncc(-c2cccc(N(CC34CCC(c5noc(C(C)(C)C)n5)(CC3)CC4)C(=O)[C@H]3C[C@](O)(C(F)(F)F)C3)c2)cn1
Bile acid receptor
  EC50: 152 nM
[1]
  remaining at 10 min: 73%
[2]
  remaining at 10 min: 69%
[3]
  remaining at 10 min: 86%
[4]
  EC50: 50000 nM
[5]
  Emax: 10%
Cytochrome P450 2C9
  IC50: 1000 nM
Cytochrome P450 2C19
  IC50: 10000 nM

## CCOc1cc(-c2cccc(N(CC34CCC(c5nc(C6CC6)no5)(CC3)CC4)C(=O)C3CCCCC3)c2)no1
Bile acid receptor
  EC50: 59 nM

## O=C(C1CCS(=O)(=O)CC1)N(CC12CCC(c3nc(C4CC4)no3)(CC1)CC2)c1cccc(-c2nc(C3CC3)no2)c1
Bile acid receptor
  EC50: 1090 nM
[1]
  remaining at 10 min: 10%
[2]
  remaining at 10 min: 100%
[3]
  remaining at 10 min: 100%
[4]
  EC50: 4000 nM
[5]
  Emax: 48%
Cytochrome P450 2C9
  IC50: 8000 nM
Cytochrome P450 2C19
  IC50: 8000 nM

## CN1CCC(C(=O)N(CC23CCC(c4nc(C5CC5)no4)(CC2)CC3)c2cccc(-c3nc(C4CC4)no3)c2)CC1
Bile acid receptor
  EC50: 1640 nM
[1]
  remaining at 10 min: 37%
[2]
  remaining at 10 min: 98%
[3]
  remaining at 10 min: 71%
[4]
  EC50: 50000 nM
[5]
  Emax: 11%
Cytochrome P450 2C9
  IC50: 20000 nM
Cytochrome P450 2C19
  IC50: 13000 nM

## CCOc1ncc(-c2cccc(N(CC34CCC(c5noc(C(C)(C)C)n5)(CC3)CC4)C(=O)C34CC(F)(C3)C4)c2)cn1
Bile acid receptor
  EC50: 41 nM
[1]
  remaining at 10 min: 80%
[2]
  remaining at 10 min: 100%
[3]
  remaining at 10 min: 77%
[4]
  EC50: 50000 nM
[5]
  Emax: 9%
Cytochrome P450 2C9
  IC50: 1000 nM
Cytochrome P450 2C19
  IC50: 6000 nM

## CCOc1ncc(-c2cccc(N(CC34CCC(c5noc(C(F)F)n5)(CC3)CC4)C(=O)C34CC(F)(C3)C4)c2)cn1
Bile acid receptor
  EC50: 170 nM
[1]
  remaining at 10 min: 64%
[2]
  remaining at 10 min: 88%
[3]
  remaining at 10 min: 84%
[4]
  EC50: 2000 nM
[5]
  Emax: 28%
Cytochrome P450 2C9
  IC50: 2000 nM
Cytochrome P450 2C19
  IC50: 7000 nM

## CCOC(=O)c1nc(-c2cccc(N(CC34CCC(c5nc(C6CC6)no5)(CC3)CC4)C(=O)C3CCCCC3)c2)cs1
Bile acid receptor
  EC50: 919 nM

## O=C(C1CCOCC1)N(CC12CCC(c3nc(C4CC4)no3)(CC1)CC2)c1cccc(-c2nc(C3CC3)no2)c1
Bile acid receptor
  EC50: 114 nM
[1]
  remaining at 10 min: 0%
[2]
  remaining at 10 min: 86%
[3]
  remaining at 10 min: 8%
Cytochrome P450 2C9
  IC50: 1000 nM
Cytochrome P450 2C19
  IC50: 20000 nM

## COC(=O)/C=C/c1cccc(N(CC23CCC(c4ccc(N5CCCC5)cc4)(CC2)CC3)C(=O)C2CCCCC2)c1
Bile acid receptor
  EC50: 299 nM
